This is an account of results in ChEMBL document CHEMBL1124431, “Preparation and antitumor activity of additional mitomycin A analogues” (J Med Chem, 1989).

Structures are written as SMILES.

The test system of data set [1] is P388. Kind of data set: Maximal effect of the given optimal dose of 6.4 mg/kg against P388 leukemia cells in mice. It is filed as functional, Mus musculus.
The nature of data set [2]: Partition coefficient (logP). It is filed as physicochemical. The conditions noted are these: octanol/water.
Data set [3] deals with B16. Briefly: Maximal effect of the given optimal dose of 0.4 mg/kg against B16 melanoma cells in mice. The data set is classed as organism-based. Also on record: dose 0.4 mg/kg. The settings on record: mouse, in vivo.
Data set [4] has as its system P388. Briefly: Minimum effective dose was determined on P388 leukemia cells in mice. It is filed as functional, Mus musculus. The conditions noted are these: for minimal effective dose: Mus musculus, P388, read-out: MED.
The species entered for the next data set is Mus musculus. Briefly: log(1/C) was estimated in mice. The settings on record: in vivo. The data set is classed as organism-based.
The test system of data set [5] is P388. Briefly: Maximal effect of the given optimal dose of 1.6 mg/kg against P388 leukemia cells in mice. It is filed as functional, Mus musculus.
Data set [6] has as its system B16. Briefly: Maximal effect of the given optimal dose of 1.2 mg/kg against B16 melanoma in mice. The data set is classed as functional, Mus musculus.
In data set [7] the test system is B16. Briefly: Minimum effective dose was determined on B16 melanoma cells in mice. The data set is classed as functional. The conditions noted are these: Mus musculus, read-out: MED.
In data set [8] the test system is P388. Briefly: Maximal effect of the given optimal dose of 3.2 mg/kg against P388 leukemia cells in mice. It is filed as functional, Mus musculus.
Data set [9] relates to B16. Kind of data set: Maximal effect of the given optimal dose of 0.8 mg/kg against B16 melanoma cells in mice. The data set is classed as functional, Mus musculus.
The subject of data set [10] is P388. Kind of data set: Maximal effect of the given optimal dose of 0.4 mg/kg against P388 leukemia cells in mice. It is filed as functional, Mus musculus.
Data set [11] concerns B16. Kind of data set: Maximal effect of the given optimal dose of 1.6 mg/kg against B16 melanoma in mice. The data set is classed as functional, Mus musculus.
Data set [12] relates to B16. Kind of data set: Maximal effect of the given optimal dose of 0.4 mg/kg against B16 melanoma in mice. The data set is classed as functional, Mus musculus.
The test system of data set [13] is P388. Briefly: Maximal effect of the given optimal dose of 0.2 mg/kg against P388 leukemia cells in mice. The data set is classed as functional, Mus musculus.
Data set [14] deals with B16. Kind of data set: Maximal effect of the given optimal dose of 0.8 mg/kg against B16 melanoma in mice. The data set is classed as functional, Mus musculus.
Data set [15] deals with P388. Kind of data set: Maximal effect of the given optimal dose of 0.8 mg/kg against P388 leukemia cells in mice. It is filed as functional, Mus musculus.
For data set [16], the system named is B16. Kind of data set: Maximal effect of the given optimal dose of 0.3 mg/kg against B16 melanoma in mice. The data set is classed as functional, Mus musculus.

Regarding `CO[C@@]12C(COC(N)=O)C3=C(C(=O)C(C)=C(OCCN4CCCC4)C3=O)N1CC1NC12` (stereo partly specified), the T/C in the data set with P388 [1] is given as 217%; in the data set on B16 [3] it was 107%. Besides, the logP in data set [2] came to 1.46. The MED in the data set on P388 [4] stood at 1.13e-07 M/kg. Besides, in the data set on P388 [4], the minimal effective dose is less than 0.1 mg/kg. In addition, the “Log 1/C” value in the data set filed under Mus musculus is recorded as 6.94.
In the case of `CO[C@@]12C(COC(N)=O)C3=C(C(=O)C(C)=C(OC4COCOC4)C3=O)N1CC1NC12` (stereo partly specified), the T/C is given as 210% with P388 [5] and 222% in the data set on B16 [6]. This compound showed a logP in data set [2] of 0.31. In the data set on P388 [4], this compound displayed an MED of 1.18e-07 M/kg. Moreover, the minimal effective dose in the data set with P388 [4] was less than 0.1 mg/kg; in the data set on B16 [7], less than 0.3 mg/kg. In the data set listed under Mus musculus, the “Log 1/C” value is listed as 6.93.
Take `CO[C@@]12C(COC(N)=O)C3=C(C(=O)C(C)=C(OC4CC4)C3=O)N1CC1NC12` (stereo partly specified): the T/C in the data set on P388 [8] turned out to be 172%; in the data set with B16 [9], 138%. This compound showed a logP in data set [2] of 1.17. For the same compound, the MED in the data set on P388 [4] is 1.3e-07 M/kg. Also, the minimal effective dose was determined as 0.05 mg/kg in the data set with P388 [4] and 0.8 mg/kg with B16 [7]. In the data set filed under Mus musculus, the “Log 1/C” value was 6.89.
In the data set on P388 [10], `CO[C@@]12C(COC(N)=O)C3=C(C(=O)C(C)=C(OCC4COCO4)C3=O)N1CC1NC12` (stereo partly specified) gave a T/C of 140%. In [2], this compound came in with a logP of 0.31. In the data set with P388 [4], the MED was 4.75e-07 M/kg and the minimal effective dose was determined as 0.2 mg/kg. Besides, the “Log 1/C” value in the data set listed under Mus musculus is recorded as 6.32.
For `CO[C@@]12C(COC(N)=O)C3=C(C(=O)C(C)=C(OC4CCOCC4)C3=O)N1CC1NC12` (stereo partly specified), the T/C is reported as 135% in the data set on B16 [11] and 212% in the data set on P388 [8]. Further, the logP in [2] was determined as 1.29. Moreover, in the data set on P388 [4], the MED amounted to 1.17e-07 M/kg. Besides, the figures for the minimal effective dose with P388 [4] and in the data set on B16 [7] were less than 0.1 mg/kg and 1.6 mg/kg, respectively. In the data set filed under Mus musculus, the “Log 1/C” value is listed as 6.93.
For the compound `CO[C@@]12C(COC(N)=O)C3=C(C(=O)C(C)=C(OCCC4OCCCO4)C3=O)N1CC1NC12` (stereo partly specified), the T/C is recorded as 154% in the data set with B16 [12] and 117% with P388 [13]. In addition, in data set [2], the logP turned out to be 0.82. The minimal effective dose in the data set with B16 [7] is less than 0.3 mg/kg.
`COCC(O)COC1=C(C)C(=O)C2=C(C1=O)C(COC(N)=O)[C@@]1(OC)C3NC3CN21` (stereo partly specified) registered a logP in [2] of -0.59. The results for the T/C in the data set on B16 [14] and in the data set on P388 [15] were 211% and 222%, respectively. This compound also showed an MED in the data set with P388 [4] of 1.16e-07 M/kg. Further, the figures for the minimal effective dose in the data set with P388 [4] and in the data set on B16 [7] were less than 0.1 mg/kg and 0.2 mg/kg, respectively. Moreover, in the data set listed under Mus musculus, the “Log 1/C” value was 6.94.
With `CO[C@@]12C(COC(N)=O)C3=C(C(=O)C(C)=C(OCCOCCCl)C3=O)N1CC1NC12` (stereo partly specified), the T/C in the data set on P388 [8] came to 183%; with B16 [9] it was 169%. Also, in data set [2], the logP is 1.18. For the same compound, the MED in the data set with P388 [4] stood at 6.2e-08 M/kg. Also, the minimal effective dose is less than 0.05 mg/kg with P388 [4] and 0.4 mg/kg in the data set with B16 [7]. Further, the “Log 1/C” value in the data set listed under Mus musculus was 7.21.
Consider `COC1=C(C)C(=O)C2=C(C1=O)[C@@H](COC(N)=O)[C@@]1(OC)[C@H]3N[C@H]3CN21` [MITOMYCIN A], for which the T/C in the data set on P388 [8] is 180%; with B16 [16], 177%. The compound also returned an MED in the data set with P388 [4] of 1.43e-07 M/kg. Also, the minimal effective dose with P388 [4] and in the data set on B16 [7] was 0.05 mg/kg in each case. The “Log 1/C” value in the data set filed under Mus musculus is recorded as 6.84.

In general, T/C refers to the result in the treated group divided by that in the control group, in per cent. Broadly, the logP is the decadic logarithm of the partition coefficient of the neutral form, usually between octanol and water. A lower logP goes with lower lipophilicity.
